Laboratory results from US10620188B2, “Using impedance-based cell response profiling to identify putative inhibitors for oncogene addicted targets or pathways” (ACEA Biosciences, Inc., priority 2002, dated 2020).
Read-outs that look alike come from different tables or passages of the source.

What was measured:
SH-SY5Y = assay: Impedance-based TCRP of SH-SY5Y cells, mutant ALK (F1174L); assay type: cell-based, human; settings: for IC50: mutant ALK (F1174L), long-term (72 hours post compound treatment) CI; for TCRP (Cell Index response): 10 uM
Description: (§1) The cell index was normalized at time of compound addition.
The cell index (CI) was normalized at time of compound addition. […] DMSO was served as solvent control.
The cell index was normalized at time of compound addition. DMSO at the same dose was served as solvent control.
(§2) The cell index (CI) was normalized at time of compound addition.

PDGFRβ = biological target: T1, PDGFRβ (Rattus norvegicus, UniProt Q05030); assay: Western analysis of PDGFR signaling pathway in C6 cells; assay type: cell-based
T1 construct: endogenous in cells; host or cells: C6 rat glioma cells

A431 [1] = assay: Impedance-based TCRP of A431 cells, constitutive EGFR activation; assay type: cell-based; settings: for IC50: Homo sapiens, read-out: IC50 (TCRP, constitutive activation)
Protocol: as §2
A431 cells were seeded into wells of 96 well E-plate devices (Roche applied sciences) with an initial seeding density of 20,000 cells per well and were pre-incubated in incubator with DMEM medium plus 2% FBS over night. […] DMSO at the same dose was served as solvent control. […] The IC50s derived from this experiment evaluate the inhibition of these inhibitors to this basal activation of EGFR (caused by dimerization without EGF stimulation)

A431 [2] = assay: EGF-stimulated CI increase in A431 cells; assay type: cell-based; settings: Homo sapiens
Protocol: A431 cells were seeded at 20,000 cells per well of 96-well E-plate (Roche/ACEA) with 2% fetal bovine serum. The cells were continuously monitored using xCelligence system (Roche/ACEA). […] The cell index was normalized at time of EGF addition.
To further evaluate the efficacies of these EFGR inhibitors, we tested the inhibitory effect of these inhibitors on the EGF stimulated response using impedance-based technology (FIG. 15). In this experiment, A431 cells were seeded at 20,000 cells per well of 96-well E-plate (Roche/ACEA) with 2% fetal bovine serum. The cells were continuously monitored using xCelligence system (Roche/ACEA). […] The cell index was normalized at time of EGF addition.

H1975 [3] = assay: Impedance-based TCRP of H1975 cells, constitutive EGFR activation; assay type: cell-based; settings: for IC50: Homo sapiens, read-out: IC50 (TCRP, constitutive activation)
Protocol: as §2
H1975 cells were seeded at 3,000 cells per well of 96-well E-plate (Roche/ACEA) in RPMI1640 medium with 1% fetal bovine serum. […] The cell index (CI) was normalized at time of compound addition.

H1975 [4] = assay: EGF-stimulated CI increase in H1975 cells; assay type: cell-based; settings: Homo sapiens
10T1/2 tva-H1047R = assay: Impedance-based TCRP of 10T1/2 tva-H1047R cells expressing human p110α (H1047R); assay type: cell-based, mouse; settings: 10T1/2 tva-H1047R; serum starved; from 0 to 10 uM
Protocol: (§3) Cells were serum starved for 5 hour. The cell index was normalized at time of compound addition. At the indicated time point of treatment, increasing concentrations of PI103 (0-10 uM) was added to the cells and the cell responses were monitored.
as §2
A mouse fibroblast 10T1/2 expressing the cell-surface receptor TVA, which is specific for subgroup-A avian retroviruses was used. […] A549 is a human lung cancer cell line expressing wild-type p110α. T47D and BT20 are human breast cancer cell lines expressing mutant p110α (T47D) and p110α (P539R/H1047R), respectively.
(§4) Then the normal growth medium (10% FBS) was exchanged with medium containing 0% FBS. The cells were incubated for additional 5 hours before compound treatment. A PI3K inhibitor (PI103) at different concentrations in DMSO was added into wells following the incubation period. The cell status was monitored prior to and after the compound addition using xCelligence system (Roche applied sciences). […] Cell index of the cells treated with solvent DMSO control was used as baseline. The Cell index was normalized against the cell index values at a time point just before compound addition.

10T1/2 tva = assay: Impedance-based TCRP of control cell line 10T1/2 tva; parameters: species or system mouse; settings: 10T1/2 tva control cell line; from 0 to 10 uM
Protocol: as §3, §2
A mouse fibroblast 10T1/2 expressing the cell-surface receptor TVA, which is specific for subgroup-A avian retroviruses was used.
as §4

H1993 = assay: Impedance-based TCRP of Met addicted H1993 cells (xCelligence); assay type: cell-based, human; settings: for TCRP (Cell Index response): increasing concentrations; for IC50: read-out: IC50 (TCRP)
Protocol: as §1
Cells were treated with ACEA348 (0-10 uM) for 30 min.
as §2
The time-dependent cell response profiles (TCRP) were monitored prior to and after the compound addition using the xCelligence system (ACEA Biosciences/Roche applied sciences).
The Cell index was normalized against the cell index values at a time point just before compound addition. […] EC50 and IC50 of the Met inhibitor can be derived from the CI versus the corresponding log concentration of the inhibitor.

HCC827 = assay: Impedance-based TCRP of HCC827 cells, mutant EGFR (Del E746_A750); assay type: cell-based
Protocol: as §2
Kinase inhibitors including EGFR inhibitors at different concentrations in DMSO were added into wells following the incubation period. The cell status was monitored prior to and after the compound addition using xCelligence system (Roche applied sciences). The Cell index was normalized against the cell index values at a time point just before compound addition.

C6 = assay: Impedance-based TCRP of PDGFR addicted C6 glioma cells; assay type: cell-based, rat; settings: for IC50: Rattus norvegicus, read-out: IC50 (TCRP); for TCRP (Cell Index response): increasing concentrations
Protocol: as §2
Kinase inhibitors including PDGFR inhibitors at different concentrations in DMSO were added into wells following the incubation period. The cell status was monitored prior to and after the compound addition using xCelligence system (Roche applied sciences). […] The Cell index was normalized against the cell index values at a time point just before compound addition.
IC50 of the PDGFR inhibitor can be derived from the CI versus the corresponding log concentration of the inhibitor.

SK-MEL-28 = assay: Impedance-based TCRP of SK-MEL-28, b-Raf (V600E) addicted melanoma cells; assay type: cell-based, human
Protocol: as §1
(A) The impedance-based time-dependent cellular profiles (TCRPs) of SK-MEL28 in response to b-Raf inhibitor on xCelligence system (Roche/ACEA). […] The cell index (CI) was normalized at time of the compound addition. At the indicated time point of treatment (arrow), increasing concentrations of b-Raf inhibitor (from 0 to 10 uM) were added to the cells and the cell response was monitored. […] (B) EC50 of b-Raf derived from impedance-based TCRP.
as §2
Cell lines. […] The time-dependent cell response profiles (TCRP) were monitored prior to and after the compound addition using the xCelligence system (ACEA Biosciences/Roche applied sciences).
Kinase inhibitors including b-Raf inhibitors at different concentrations in DMSO were added into wells following the incubation period. The cell status was monitored prior to and after the compound addition using xCelligence system (Roche applied sciences). […] The Cell index was normalized against the cell index values at a time point just before compound addition.

[5] = NCI-H1975, H1975, inhibitor 1 hour, then EGF 30 ng/ml, Normalized Cell Index at 30 minutes after EGF, estimated, read-out: IC50 (TCRP, ligand stimulated)
[6] = C6, Long-term (96 hours post compound treatment) CI

T1 sequence (Q05030 32-1097): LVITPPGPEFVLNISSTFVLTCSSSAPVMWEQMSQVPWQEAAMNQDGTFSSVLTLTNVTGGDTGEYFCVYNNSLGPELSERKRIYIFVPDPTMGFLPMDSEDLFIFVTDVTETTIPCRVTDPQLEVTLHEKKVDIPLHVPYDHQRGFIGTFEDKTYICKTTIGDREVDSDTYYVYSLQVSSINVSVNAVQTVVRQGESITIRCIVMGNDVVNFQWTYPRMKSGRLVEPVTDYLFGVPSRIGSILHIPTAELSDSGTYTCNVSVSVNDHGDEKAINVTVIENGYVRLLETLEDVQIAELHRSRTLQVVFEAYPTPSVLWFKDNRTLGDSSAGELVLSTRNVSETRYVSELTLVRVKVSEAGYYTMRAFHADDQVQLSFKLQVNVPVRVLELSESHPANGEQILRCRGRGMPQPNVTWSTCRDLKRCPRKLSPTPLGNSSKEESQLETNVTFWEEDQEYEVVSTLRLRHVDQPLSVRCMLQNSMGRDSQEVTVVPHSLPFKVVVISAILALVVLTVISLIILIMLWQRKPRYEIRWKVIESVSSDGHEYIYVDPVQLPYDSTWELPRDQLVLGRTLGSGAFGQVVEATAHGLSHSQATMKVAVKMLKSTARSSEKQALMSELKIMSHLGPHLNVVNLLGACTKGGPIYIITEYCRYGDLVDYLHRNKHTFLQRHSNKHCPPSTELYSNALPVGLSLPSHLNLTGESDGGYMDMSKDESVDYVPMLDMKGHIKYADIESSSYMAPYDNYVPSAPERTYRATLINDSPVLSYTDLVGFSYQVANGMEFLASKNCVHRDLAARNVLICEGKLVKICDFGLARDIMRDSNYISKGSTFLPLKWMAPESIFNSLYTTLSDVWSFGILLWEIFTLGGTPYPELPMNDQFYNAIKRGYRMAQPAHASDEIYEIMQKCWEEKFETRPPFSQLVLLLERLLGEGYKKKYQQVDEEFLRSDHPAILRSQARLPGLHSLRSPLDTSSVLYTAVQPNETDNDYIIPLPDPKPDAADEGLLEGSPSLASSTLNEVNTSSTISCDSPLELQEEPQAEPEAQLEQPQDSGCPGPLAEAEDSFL

Compound	TCRP (Cell Index response) (10T1/2 tva-H1047R)	TCRP (Cell Index response) (10T1/2 tva)	TCRP (Cell Index response) (H1993; H1993)	also measured
CNC(=O)c1c(F)cccc1Nc1nc(Nc2cc3c(cc2OC)CCN3C(=O)CN(C)C)nc2[nH]ccc12 [GSK1838705A]				IC50 (SH-SY5Y): 0.137 µM
Cc1ccc(NC(=O)c2ccc(CN3CCN(C)CC3)cc2)cc1Nc1nccc(-c2cccnc2)n1 [Imatinib]				phospho-MAPK (Western) (PDGFRβ; downstream target of PDGFR): down-regulated; PDGFRβ autophosphorylation (Western) (PDGFRβ; phospho-PDGFRβ (Y1021)): effectively inhibited
C=CC(=O)Nc1cccc(Oc2nc(Nc3ccc(N4CCN(C)CC4)cc3OC)ncc2Cl)c1 [WZ4002]				IC50 (A431 [1]; A-431, A431 (wild-type EGFR), Long-term (72 hours post compound treatment) CI): 4.37 µM; IC50 (A431 [2]; A-431, A431, inhibitor 1 hour, then EGF 30 ng/ml, Normalized Cell Index at 30 minutes after EGF, estimated, read-out: IC50 (TCRP, ligand stimulated)): ~2 µM; IC50 (H1975 [3]; NCI-H1975, H1975 (mutant L858R/T790M EGFR), 72 hours post compound treatment): 0.56 µM; IC50 (H1975 [4]; [5]): ~1.25 µM
COc1cc2ncnc(Nc3cccc(Cl)c3)c2cc1OC [AG1478]				TCRP (Cell Index response) (SH-SY5Y): None trigged a TCRP representative to that trigger by ALK inhibitors
COC(=O)[C@@]1(OC)C[C@H]2O[C@]1(C)n1c3ccccc3c3c4c(c5c6ccccc6n2c5c31)C(=O)N(C)C4 [KT5823]	did not introduce significant cell index changes in either cell line	did not introduce significant cell index changes in either cell line		
O=C1Nc2ccc(I)cc2/C1=C/c1cc(Br)c(O)c(Br)c1 [GW5074]	cell index decreases in both the control cell line and H1047R cell line	cell index decreases in both the control cell line and H1047R cell line	None of these inhibitors induced a TCRP similar to PF2341006	
Oc1ccc(-c2nc(-c3ccncc3)c(-c3ccc(F)cc3)[nH]2)cc1 [SB202190]	did not introduce significant cell index changes in either cell line	did not introduce significant cell index changes in either cell line	None of these inhibitors induced a TCRP similar to PF2341006	
N#CC(=C(/N)Sc1ccccc1N)/C(C#N)=C(\N)Sc1ccccc1N [U0126]	did not introduce significant cell index changes in either cell line	did not introduce significant cell index changes in either cell line	None of these inhibitors induced a TCRP similar to PF2341006	
C[C@@H](Oc1cc(-c2cnn(C3CCNCC3)c2)cnc1N)c1c(Cl)ccc(F)c1Cl [PF02341066, Crizotinib]				IC50 (H1993; Homo sapiens, NCI-H1993, 200 h): 0.00323 µM; EC50 (H1993; Homo sapiens, NCI-H1993, H1993, short-term (10 hours post compound treatment) CI): 0.002 µM; IC50 (H1993): 0.00187 µM
CO[C@H]1C[C@@H]2CC[C@@H](C)[C@@](O)(O2)C(=O)C(=O)N2CCCC[C@H]2C(=O)O[C@H]([C@H](C)C[C@@H]2CC[C@@H](OC(=O)C(C)(CO)CO)[C@H](OC)C2)CC(=O)[C@H](C)/C=C(\C)[C@@H](O)[C@@H](OC)C(=O)[C@H](C)C[C@H](C)/C=C/C=C/C=C/1C [Temsirolimus]	triggered 10T1/2-tva-H1047R specific cell index drop	not present in the control cell line 10T1/2-tva		
AKT inhibitor IV			None of these inhibitors induced a TCRP similar to PF2341006	
CCCCCCOC(=O)[C@]1(O)C[C@@H]2O[C@@]1(C)n1c3ccccc3c3c4c(c5c6ccccc6n2c5c31)C(=O)NC4 [KT5720]	did not introduce significant cell index changes in either cell line	did not introduce significant cell index changes in either cell line		
COc1ccc(-c2ccc3c(N4CCOCC4)nc(N4C[C@@H](C)O[C@@H](C)C4)nc3n2)cc1CO [KU0063794]	triggered 10T1/2-tva-H1047R specific cell index drop	not present in the control cell line 10T1/2-tva	None of these inhibitors induced a TCRP similar to PF2341006	
CN[C@@H]1C[C@H]2O[C@@](C)([C@@H]1OC)n1c3ccccc3c3c4c(c5c6ccccc6n2c5c31)C(=O)NC4 [Staurosporine]	cell index decreases in both the control cell line and H1047R cell line	cell index decreases in both the control cell line and H1047R cell line		
C[S+]([O-])c1ccc(-c2nc(-c3ccncc3)c(-c3ccc(F)cc3)[nH]2)cc1 (stereo not shown) [SB203580]			None of these inhibitors induced a TCRP similar to PF2341006	
CC1=C(C(=O)Nc2cc3cn[nH]c3cc2F)C(c2ccc(C(F)(F)F)cc2)CC(=O)N1 (stereo not shown) [GSK429286]			None of these inhibitors induced a TCRP similar to PF2341006	
CN(C)C/C=C/C(=O)Nc1cc2c(Nc3ccc(F)c(Cl)c3)ncnc2cc1O[C@H]1CCOC1 [BIBW2992]				IC50 (H1975 [4]; NCI-H1975, read-out: IC50 (TCRP, ligand stimulated)): ~0.2 µM
CS(=O)(=O)CCNCc1ccc(-c2ccc3ncnc(Nc4ccc(OCc5cccc(F)c5)c(Cl)c4)c3c2)o1 [Lapatinib]				IC50 (HCC827; Homo sapiens, HCC827, 96 h, read-out: IC50 (TCRP)): 0.0388 µM
COc1cc(N2CCC(N3CCN(C)CC3)CC2)ccc1Nc1ncc(Cl)c(Nc2ccccc2S(=O)(=O)C(C)C)n1 [NVP-TAE684]				IC50 (SH-SY5Y; Homo sapiens): 0.0104 µM
CCN(CC)CCNC(=O)c1c(C)[nH]c(/C=C2\C(=O)Nc3ccc(F)cc32)c1C [Sunitinib]				IC50 (C6; [6]): 0.0422 µM
CN([C@@H](Cc1ccc(OS(=O)(=O)c2cccc3cnccc23)cc1)C(=O)N1CCN(c2ccccc2)CC1)S(=O)(=O)c1cccc2cnccc12 [CaM kinase inhibitor]	did not introduce significant cell index changes in either cell line	did not introduce significant cell index changes in either cell line		
O=c1cc(CN2CCOCC2)occ1OCCCCCSc1ccnc2cc(C(F)(F)F)ccc12 [EHT1864]			None of these inhibitors induced a TCRP similar to PF2341006	
C=CC(=O)Nc1cc2c(Nc3ccc(F)c(Cl)c3)ncnc2cc1OCCCN1CCOCC1 [Canertinib]				TCRP (Cell Index response) (A431 [1]; A431, from 0 to 20 uM): dose-dependent short-term and long-term decrease in Cell Index; IC50 (A431 [1]; A-431, 72 h): 0.357 µM; IC50 (A431 [2]; A-431, read-out: IC50 (TCRP, ligand stimulated)): < 0.027 µM; TCRP (Cell Index response) (H1975 [3]; H1975, from 0 to 20 uM): dose-dependent short-term and long-term decrease in Cell Index; IC50 (H1975 [3]; NCI-H1975, 72 h): 0.396 µM; IC50 (H1975 [4]; [5]): ~0.15 µM
Cc1ccc(NC(=O)c2ccc(CN3CCN(C)CC3)cc2)cc1Nc1nc(-c2cccnc2)cs1 [Masitinib]			None of these inhibitors induced a TCRP similar to PF2341006	TCRP (Cell Index response) (C6; C6): dose-dependent short-term increase (to a various degree) and long-term decrease in Cell Index; IC50 (C6; [6]): 0.487 µM; TCRP (Cell Index response, cell growth) (HCC827; HCC827, increasing concentrations): did not inhibit HCC827 cell growth
O=c1[nH]c2ccccc2n1C1CCN(Cc2ccc(-c3nc4cc5[nH]cnc5cc4nc3-c3ccccc3)cc2)CC1 [AKT inhibitor VIII]	cell index decreases in both the control cell line and H1047R cell line	cell index decreases in both the control cell line and H1047R cell line	None of these inhibitors induced a TCRP similar to PF2341006	
CNC(=O)c1cc(Oc2ccc(NC(=O)Nc3ccc(Cl)c(C(F)(F)F)c3)cc2)ccn1 [sorafenib]		cell index decreases in both the control cell line and H1047R cell line		TCRP (Cell Index response) (SK-MEL-28): did not affect CI changes that are significantly different from the negative control; TCRP (Cell Index response) (C6; C6): dose-dependent short-term increase (to a various degree) and long-term decrease in Cell Index; IC50 (C6; C6, 96 h): 0.19 µM; TCRP (Cell Index response) (SH-SY5Y): None trigged a TCRP representative to that trigger by ALK inhibitors
CC[C@]1(O)C[C@H]2CN(CCc3c([nH]c4ccccc34)[C@@](C(=O)OC)(c3cc4c(cc3OC)N(C=O)[C@H]3[C@@](O)(C(=O)OC)[C@H](OC(C)=O)[C@]5(CC)C=CCN6CC[C@]43[C@@H]65)C2)C1 [vincristine]	cell index decreases in both the control cell line and H1047R cell line	cell index decreases in both the control cell line and H1047R cell line		
Cn1c(=O)n(-c2ccc(C(C)(C)C#N)cc2)c2c3cc(-c4cnc5ccccc5c4)ccc3ncc21 [BEZ235]	triggered 10T1/2-tva-H1047R specific cell index drop	not present in the control cell line 10T1/2-tva	None of these inhibitors induced a TCRP similar to PF2341006	
COc1cccc(-c2cc(=O)c3ccccc3o2)c1N [PD98059]	did not introduce significant cell index changes in either cell line	did not introduce significant cell index changes in either cell line	None of these inhibitors induced a TCRP similar to PF2341006	
